Patent US4755594A, “N^6 -substituted adenosines” (Warner-Lambert Company, priority 1986, dated 1988)

biological target: T1, adenosine A2 receptor (Rattus norvegicus, UniProt P30543); assay: Adenosine Receptor Binding--A2 Receptor Affinity (RBA2), [3H]NECA, striatal membranes; settings: read-out: RBA-2 IC50
T1 construct: Brains were thawed and then kept on ice while the striata were dissected out; tissue Pel-Freez (Rogers, Ark.); host or cells: striata of Sprague-Dawley rats (Long-Evans hooded rats gave essentially identical results)
T1 sequence (P30543 whole entry): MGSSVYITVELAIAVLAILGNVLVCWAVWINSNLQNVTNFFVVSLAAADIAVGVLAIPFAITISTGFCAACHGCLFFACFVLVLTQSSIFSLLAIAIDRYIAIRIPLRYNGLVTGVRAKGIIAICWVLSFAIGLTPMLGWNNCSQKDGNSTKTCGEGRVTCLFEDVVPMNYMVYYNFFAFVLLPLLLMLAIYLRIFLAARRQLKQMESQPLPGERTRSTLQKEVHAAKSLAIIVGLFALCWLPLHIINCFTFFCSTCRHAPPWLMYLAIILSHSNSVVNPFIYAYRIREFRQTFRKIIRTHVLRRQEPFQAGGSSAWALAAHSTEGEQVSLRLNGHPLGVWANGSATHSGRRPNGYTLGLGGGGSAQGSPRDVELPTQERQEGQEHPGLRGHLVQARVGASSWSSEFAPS
Procedure: Adenosine Receptor Binding--A2 Receptor Affinity (RBA2)
Brains from 200-500 g mixed sex Sprague-Dawley rats were purchased from Pel-Freez (Rogers, Ark.). Fresh brains from male Long-Evans hooded rats (Blue Spruce Farms, Altamont, NY) gave essentially identical results. Brains were thawed and then kept on ice while the striata were dissected out. Striata were disrupted in 10 vol of ice-cold 50 mM Tris.HCl (pH 7.7 at 25° C., pH 8.26 at 5° C.) (Tris) for 30 seconds in a Polytron PT-10 (Brinkmann) at setting 5. The suspension was centrifuged at 50,000 xg for ten minutes, the supernatant discarded, the pellet resuspended in 10 vol ice-cold Tris as above, recentrifuged, resuspended at 1 g/5ml, and stored in plastic vials at -70° C. (stable for at least six months). When needed, tissue was thawed at room temperature, disrupted in a Polytron, and kept on ice until used.
All incubations were for 60 minutes at 25° C. in 12×75 mm glass tubes containing 1 ml Tris with 5 mg original tissue weight of rat weight of rat striatal membranes, 4 nM [^3 H]--N-ethyl adenosine-5'-carboxamide ([^3 H]NECA), 50 nM N^6 -cyclopentyladenosine (to eliminate A1 receptor binding), 10 mM MgCl2, 0.1 units/ml of adenosine deaminase and 1% dimethylsulfoxide. N^6 -Cyclopentyladenosine was dissolved at 10 mM in 0.02N HCl and diluted in Tris. Stock solutions and dilutions of N^6 -cyclopentyladenosine could be stored at -20° C. for several months. Test compounds were dissolved at 10 mM in dimethylsulfoxide on the same day as the experiment, and diluted in dimethylsulfoxide to 100×the final incubation concentration. Control incubations received an equal volume (10 μl) of dimethylsulfoxide; the resulting concentration of dimethylsulfoxide had no effect on binding. [^3 H]NECA was diluted to 40 nM in Tris. The membrane suspension (5 mg/0.79 ml) contained sufficient MgCl2 and adenosine deaminase to give 10 mM and 0.1 units/ml, respectively, final concentration in the incubation. […] After all additions, the rack of tubes was vortexed, and the tubes were then incubated for 60 min at 25° C. in a shaking water bath. The rack of tubes was vortexed an additional time halfway through the incubation.
Incubations were terminated by filtration through 2.4 cm GF/B filters under reduced pressure. Each tube was filtered as follows: the contents of the tube were poured on the filter, 4 ml of ice-cold Tris were added to the tube and the contents poured onto the filter, and the filter was washed twice with 4 ml of ice-cold Tris. The filtration was complete in about twelve seconds. Filters were put in scintillation vials, 8 ml of Formula 947 scintillation fluid added, and the vials left overnight, shaken, and counted in a liquid scintillation counter at 40% efficiency.
Nonspecific binding was defined as binding in the presence of 100 μM N^6 -cyclopentyladenosine, and specific binding was defined as total binding minus nonspecific binding. The IC50 was calculated by weighted nonlinear least squares curve-fitting to the mass-action equation. [formula] where Y is cpm bound
T is cpm total binding without drug
S is cpm specific binding without drug
D is the concentration of drug and
K is the IC50 of the drug
Weighting factors were calculated under the assumption that the standard deviation was proportional to the predicted value of Y. Nonspecific binding was treated as a very large (infinite) concentration of drug in the computer analysis.

| SMILES | IC50 [nM] |
| --- | --- |
| OC[C@H]1O[C@@H](n2cnc3c(NCC4(c5cccc(Cl)c5)CC4)ncnc32)[C@H](O)[C@@H]1O [Example 2, N6-((1-(3-Chlorophenyl)cyclopropyl)methyl)adenosine] | 200 |
| O[C@@H]1[C@H](O)[C@@H](CCl)O[C@H]1n1cnc2c(NCC3(c4ccccc4)CC3)ncnc21 [Example 5, 5'-Deoxy-5'-chloro-N6-((1-phenylcyclopropyl)methyl)adenosine] | 420 |
| OC[C@H]1O[C@@H](n2cnc3c(NCC4(c5cccc(Cl)c5)CCC4)ncnc32)[C@H](O)[C@@H]1O [Example 8, N6-((1-(3-Chlorophenyl)cyclobutyl)methyl)adenosine] | 320 |
| OC[C@H]1O[C@@H](n2cnc3c(NCC4(c5ccccc5)CCCC4)ncnc32)[C@H](O)[C@@H]1O [Example 10, N6-((1-Phenylcyclopentyl)methyl)adenosine] | 460 |
| OC[C@H]1O[C@@H](n2cnc3c(NCC4(c5ccccc5)CCCCC4)ncnc32)[C@H](O)[C@@H]1O [Example 11, N6-((1-Phenylcyclohexyl)methyl)adenosine] | 3200 |
| OC[C@H]1O[C@@H](n2cnc3c(NCC4(c5ccc(Cl)cc5)CC4)ncnc32)[C@H](O)[C@@H]1O [Example 12, N6-((1-(4-Chlorophenyl)cyclopropyl)methyl)adenosine] | 1200 |

Stronger by IC50, values ahead:

| IC50 [nM] | SMILES |
| --- | --- |
| 80 | OC[C@H]1O[C@@H](n2cnc3c(NCC4(c5ccccc5)CC4)ncnc32)[C@H](O)[C@@H]1O [Example 1, N6-((1-Phenylcyclopropyl)methyl)adenosine] |
| 8.6 | OC[C@H]1O[C@@H](n2cnc3c(NCC4(c5cccs5)CC4)ncnc32)[C@H](O)[C@@H]1O [Example 3, N6-((1-Thien-2-ylcyclopropyl)methyl)adenosine] |
| 67 | O[C@@H]1[C@H](O)[C@@H](CCl)O[C@H]1n1cnc2c(NCC3(c4cccs4)CC3)ncnc21 [Example 6, 5'-Chloro-5'-deoxy-N6-((1-thien-2-ylcyclopropyl)methyl)adenosine] |
| 150 | OC[C@H]1O[C@@H](n2cnc3c(NCC4(c5ccccc5)CCC4)ncnc32)[C@H](O)[C@@H]1O [Example 7, N6-((1-Phenylcyclobutyl)methyl)adenosine] |
| 87 | OC[C@H]1O[C@@H](n2cnc3c(NCC4(c5cccs5)CCC4)ncnc32)[C@H](O)[C@@H]1O [Example 9, N6-((1-Thien-2-ylcyclobutyl)methyl)adenosine] |

system: not listed separately; assay: Conditioned shock avoidance (SIDR), antipsychotic; assay type: in vivo, male Long-Evans rats; settings: Rattus norvegicus; read-out: ED50 in the SIDR protocol
Procedure: (§1) Representative compounds of the invention (identified in the Examples) were also tested for antipsychotic activity according to the following protocol (SIDR or SIDSM). The noted compound has the indicated ED50 values (mg/kg) and is considered active as an antipsychotic agent in the test procedure.
(§2) Mature male Long-Evans rats (SIDR) or squirrel-monkeys (SIDSM) are conditioned to push a lever in order to avoid a painful electric footshock. If the animals fails to push the lever, he receives a shock every ten seconds until the lever is pushed. Shocks can be terminated by pushing the lever. Thereafter, as long as the lever is pushed at least once every 20 seconds, there will be no shock.
(§3) Each animal acts as its own control; one weekly session is used to establish baseline behavior and another session later in the week is used as a drug session. Once patterns of avoidance are established, the effects of standard and unknown compounds are studied.

| SMILES | ED50 [mg/kg] |
| --- | --- |
| OC[C@H]1O[C@@H](n2cnc3c(NCC4(c5ccccc5)CC4)ncnc32)[C@H](O)[C@@H]1O [Example 1, N6-((1-Phenylcyclopropyl)methyl)adenosine] | 0.55 |

system: not listed separately; assay: Conditioned shock avoidance (SIDSM), antipsychotic; assay type: in vivo, squirrel-monkeys; settings: Primates; squirrel-monkey; read-out: ED50 in the SIDSM protocol
Procedure: as §1, §2, §3

| SMILES | ED50 [mg/kg] |
| --- | --- |
| OC[C@H]1O[C@@H](n2cnc3c(NCC4(c5ccccc5)CC4)ncnc32)[C@H](O)[C@@H]1O [Example 1, N6-((1-Phenylcyclopropyl)methyl)adenosine] | 0.52 |
